# Measured values from patent US20250268903A1, “RXFP1 AGONISTS” (BRISTOL-MYERS SQUIBB COMPANY, priority 2021, published 2025).
# Molecular target: T1, human RXFP1 (Homo sapiens, UniProt Q9HBX9)
# T1 construct: expressed in transfected cells
# T1 sequence (Q9HBX9 1-757): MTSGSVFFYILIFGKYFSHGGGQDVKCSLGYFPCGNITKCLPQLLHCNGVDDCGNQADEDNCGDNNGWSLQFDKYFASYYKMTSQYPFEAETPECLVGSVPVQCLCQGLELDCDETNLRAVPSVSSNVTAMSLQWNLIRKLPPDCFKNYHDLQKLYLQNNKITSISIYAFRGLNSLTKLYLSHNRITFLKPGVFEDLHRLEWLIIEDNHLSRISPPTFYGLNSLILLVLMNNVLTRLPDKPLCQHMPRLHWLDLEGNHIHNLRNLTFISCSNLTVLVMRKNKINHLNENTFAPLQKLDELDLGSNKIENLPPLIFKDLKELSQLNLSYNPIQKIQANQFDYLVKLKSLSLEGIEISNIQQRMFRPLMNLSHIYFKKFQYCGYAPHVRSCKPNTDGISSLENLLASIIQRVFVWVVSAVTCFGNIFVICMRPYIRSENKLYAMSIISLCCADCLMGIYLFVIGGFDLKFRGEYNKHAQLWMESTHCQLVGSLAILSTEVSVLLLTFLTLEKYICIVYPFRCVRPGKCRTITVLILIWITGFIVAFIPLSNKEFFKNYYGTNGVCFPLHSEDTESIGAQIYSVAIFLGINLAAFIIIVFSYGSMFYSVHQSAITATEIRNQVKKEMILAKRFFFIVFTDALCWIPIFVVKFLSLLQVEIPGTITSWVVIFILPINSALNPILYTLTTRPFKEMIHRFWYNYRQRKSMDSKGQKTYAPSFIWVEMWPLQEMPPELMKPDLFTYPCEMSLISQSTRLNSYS
# Experiment: hRXFP1 HEK293 cAMP assay (HTRF)
# Type: cell-based
# Conditions: HEK293 cells stably expressing human RXFP1, 30 min at room temperature
# Protocol: RXFP1 Cyclic Adenosine Monophosphate (cAMP) Assays. […] Cells were dissociated and suspended in assay buffer. The assay buffer was HBSS buffer (with calcium and magnesium) containing 20 mM HEPES, 0.05% BSA, and 0.5 mM IBMX. Cells (3000 cells per well, except 1500 cell per well for HEK293 cells stably expressing human RXFP1) were added to 384-well Proxiplates (Perkin-Elmer). Cells were immediately treated with test compounds in DMSO (2% final) at final concentrations in the range of 0.010 nM to 50 μM. Cells were incubated for 30 min at room temperature. The level of intracellular cAMP was determined using the HTRF HiRange cAMP assay reagent kit (Cisbio) according to manufacturer's instructions. Solutions of cryptate conjugated anti-cAMP and d2 fluorophore-labelled cAMP were made in a supplied lysis buffer separately. Upon completion of the reaction, the cells were lysed with equal volume of the d2-cAMP solution and anti-cAMP solution. […] The potency and activity of a compound to […] cAMP production was then determined by fitting to a 4-parametric logistic equation from a plot of cAMP level versus compound concentrations.
row,SMILES,EC50 [nM]
1,"COc1ccc(S(=O)(=O)Cc2ccccc2)cc1C(=O)N[C@@H]1C2CCC(/C2=C/C(F)(F)F)[C@@H]1C(=O)Nc1ccc(F)c(C(F)(F)F)c1 (stereo partly drawn) [Example 3, (2S,3R,7Z)-N-[4-fluoro-3-(trifluoromethyl)phe-nyl]-3-(2-methoxy-5-phenylmethanesulfo-nylbenzamido)-7-(2,2,2-trifluoroethylidene)bi-cyclo[2.2.1]heptane-2-carboxamide]",560
2,"COc1ccc(S(=O)(=O)CCO)cc1C(=O)N[C@H]1[C@@H](C(=O)Nc2ccc(F)c(C(F)(F)F)c2)[C@H]2CC[C@@H]1/C2=C\C(F)(F)F [Example 4, (1R,2S,3R,4R,Z)—N-(4-fluoro-3-(trifluoromethyl)phenyl)-3-(5-((2-hydroxyethyl)sulfonyl)-2-methoxybenzamido)-7-(2,2,2-trifluoroethylidene) bicyclo[2.2.1]heptane-2-carboxamide]",337
3,"COc1ccc(/C=C/C(=O)O)cc1C(=O)N[C@H]1[C@@H](C(=O)Nc2ccc(F)c(C(F)(F)F)c2)[C@H]2CC[C@@H]1/C2=C\C(F)(F)F [Example 8, (E)-3-(3-(((1R,2R,3S,4R,Z)-3-((4-fluoro-3-(trifluoromethyl)phenyl)carbamoyl)-7-(2,2,2-trifluoroethylidene)bicyclo[2.2.1]heptan-2-yl)carbamoyl)-4-methoxyphenyl) acrylic acid]",309
4,"COc1ccc(CCC(=O)O)cc1C(=O)N[C@@H]1C2CCC(/C2=C/C(F)(F)F)[C@@H]1C(=O)Nc1ccc(F)c(C(F)(F)F)c1 (stereo partly drawn) [Example 9, 3-(3-{[(2R,3S,7Z)-3-{[4-fluoro-3-(trifluoromethyl)phenyl]carbamoyl}-7-(2,2,2-trifluoroethylidene)bicyclo[2.2.1]heptan-2-yl]carbamoyl}-4-methoxyphenyl) propanoic acid]",255
5,"COc1ccc(CO)cc1C(=O)N[C@H]1[C@@H](C(=O)Nc2ccc(F)c(C(F)(F)F)c2)[C@H]2CC[C@@H]1/C2=C\C(F)(F)F [Example 10, (1R,2S,3R,4R,Z)—N-(4-fluoro-3-(trifluoromethyl)phenyl)-3-(5-(hydroxymethyl)-2-methoxybenzamido)-7-(2,2,2-trifluoroethylidene) bicyclo[2.2.1]heptane-2-carboxamide]",962
6,"CNc1ccc(CCCO)cc1C(=O)N[C@H]1[C@@H](C(=O)Nc2ccc(F)c(C(F)(F)F)c2)[C@H]2CC[C@@H]1/C2=C\C(F)(F)F [Example 11, (1R,2S,3R,4R,Z)—N-(4-fluoro-3-(trifluoromethyl)phenyl)-3-(5-(3-hydroxypropyl)-2-(methylamino)benzamido)-7-(2,2,2-trifluoroethylidene) bicyclo[2.2.1]heptane-2-carboxamide]",4710
7,"COc1ccc(COc2cccc(C(=O)O)c2)cc1C(=O)N[C@H]1[C@@H](C(=O)Nc2ccc(F)c(C(F)(F)F)c2)[C@H]2CC[C@@H]1/C2=C\C1CC1 [Example 12, 3-((3-(((1R,2R,3S,4R,Z)-7-(cyclopropylmethylene)-3-((4-fluoro-3-(trifluoromethyl)phenyl)carbamoyl)bicyclo[2.2.1]heptan-2-yl)carbamoyl)-4-methoxybenzyl)oxy)benzoic acid]",10
8,"COc1ccc(CN2CCOCC2)cc1C(=O)N[C@@H]1C2CCC(/C2=C/C(F)(F)F)[C@@H]1C(=O)Nc1ccc(F)c(C(F)(F)F)c1 (stereo partly drawn) [Example 13, (2S,3R,7Z)N-[4-fluoro-3-(trifluoromethyl)phe-nyl]-3-{2-methoxy-5-[(morpholin-4-yl)methyl]benzamido}-7-(2,2,2-trifluoroethylidene)bi-cyclo[2.2.1]heptane-2-carboxamide]",625
9,"COc1cc(COC2(CO)CC2)ccc1C(=O)N[C@H]1[C@@H](C(=O)Nc2ccc(F)c(C(F)(F)F)c2)[C@H]2CC[C@@H]1/C2=C\C1CC1 [Example 14, (1R,2S,3R,4R,Z)-7-(cyclopropylmethylene)-N-(4-fluoro-3-(trifluoromethyl)phenyl)-3-(4-((1-(hydroxymethyl)cyclopropoxy)methyl)-2-methoxybenzamido) bicyclo[2.2.1]heptane-2-carboxamide]",13
10,"COc1ccc(COCC2CC2(F)F)cc1C(=O)N[C@@H]1C2CCC(/C2=C/C2CC2)[C@@H]1C(=O)Nc1ccc(F)c(C(F)(F)F)c1 (stereo partly drawn) [Example 15, (2S,3R,7Z)-7-(cyclopropylmethyli-dene)-3-(5-{[(2,2-difluorocyclopropyl)methoxy]methyl}-2-methoxybenzamido)-N-[4-fluoro-3-(trifluoromethyl)phe-nyl]bicyclo[2.2.1]hept-ane-2-carboxamide]",36

# More lines, now with the values ahead:
row,EC50 [nM],SMILES
1,94,"COc1ccc(COCC2COC2)cc1C(=O)N[C@@H]1C2CCC(/C2=C/C2CC2)[C@@H]1C(=O)Nc1ccc(F)c(C(F)(F)F)c1 (stereo partly drawn) [Example 16, (2S,3R,7Z)-7-(cyclopropylmethyli-dene)-N-[4-fluoro-3-(trifluoromethyl)phe-nyl]-3-(2-methoxy-5-{[(oxetan-3-yl)methoxy]methyl}benzamido)bi-cyclo[2.2.1]hept-ane-2-carboxamide]"
2,121,COc1ccc(COC2(C(=O)NCCO)CC2)cc1C(=O)N[C@@H]1C2CCC(/C2=C/C2CC2)[C@@H]1C(=O)Nc1ccc(F)c(C(F)(F)F)c1 (stereo partly shown) [Example 17]
3,124,"COc1ccc(COC2(C(=O)O)CC2)cc1C(=O)N[C@@H]1C2CCC(/C2=C/C2CC2)[C@@H]1C(=O)Nc1ccc(F)c(C(F)(F)F)c1 (stereo partly drawn) [Example 18, 1-[(3-{[(2R,3S,7Z)-7-(cyclopropylmethyli-dene)-3-{[4-fluoro-3-(trifluoromethyl)phe-nyl]carbamoyl}bicy-clo[2.2.1]heptan-2-yl]carbamoyl}-4-methoxyphenyl)meth-oxy]cyclopropane-1-carboxylic acid]"
4,125,"COc1ccc(COC2CC2)cc1C(=O)N[C@@H]1C2CCC(/C2=C/C2CC2)[C@@H]1C(=O)Nc1ccc(F)c(C(F)(F)F)c1 (stereo partly drawn) [Example 19, (2S,3R,7Z)-3-[5-(cyclopropoxymethyl)-2-methoxybenzamido]-7-(cyclopropylmethyli-dene)-N-[4-fluoro-3-(trifluoromethyl)phe-nyl]bicyclo[2.2.1]hept-ane-2-carboxamide]"
5,142,"COc1ccc(COc2ccccc2)cc1C(=O)N[C@@H]1C2CCC(/C2=C/C(F)(F)F)[C@@H]1C(=O)Nc1ccc(F)c(C(F)(F)F)c1 (stereo partly drawn) [Example 20, (2S,3R,7Z)-N-[4-fluoro-3-(trifluoromethyl)phe-nyl]-3-[2-methoxy-5-(phenoxymethyl)ben-zamido]-7-(2,2,2-trifluoroethylidene)bi-cyclo[2.2.1]heptane-2-carboxamide]"
6,330,"COc1ccc(CN2C(=O)NC3(CCCC3)C2=O)cc1C(=O)N[C@@H]1C2CCC(/C2=C/C2CC2)[C@@H]1C(=O)Nc1ccc(F)c(C(F)(F)F)c1 (stereo partly drawn) [Example 21, (2S,3R,7Z)-7-(cyclopropylmethyli-dene)-3-[5-({2,4-dioxo-1,3-diazaspiro[4.4]nonan-3-yl}methyl)-2-methoxybenzamido]-N-[4-fluoro-3-(trifluoromethyl)phe-nyl]bicyclo[2.2.1]hept-ane-2-carboxamide]"
7,417,"COc1ccc(CN2C(=O)CNC2=O)cc1C(=O)N[C@@H]1C2CCC(/C2=C/C2CC2)[C@@H]1C(=O)Nc1ccc(F)c(C(F)(F)F)c1 (stereo partly drawn) [Example 22, (2S,3R,7Z)-7-(cyclopropylmethyli-dene)-3-{5-[(2,5-dioxoimidazolidin-1-yl)methyl]-2-methoxybenzamido}-N-[4-fluoro-3-(trifluoromethyl)phe-nyl]bicyclo[2.2.1]hept-ane-2-carboxamide]"
8,2040,"COc1cc(CN2C(=O)CNC2=O)ccc1C(=O)N[C@@H]1C2CCC(/C2=C/C2CC2)[C@@H]1C(=O)Nc1ccc(F)c(C(F)(F)F)c1 (stereo partly drawn) [Example 25, (2S,3R,7Z)-7-(cyclopropylmethyli-dene)-3-{4-[(2,5-dioxoimidazolidin-1-yl)methyl]-2-methoxybenzamido}-N-[4-fluoro-3-(trifluoromethyl)phe-nyl]bicyclo[2.2.1] heptane-2-carboxamide]"
9,1380,"COc1cc(CN2C(=O)CNC2=O)ccc1C(=O)N[C@@H]1C2CCC(/C2=C/C(F)(F)F)[C@@H]1C(=O)Nc1ccc(F)c(C(F)(F)F)c1 (stereo partly drawn) [Example 26, (2S,3R,7Z)-3-{4-[(2,5-dioxoimidazolidin-1-yl)methyl]-2-methoxybenzamido}-N-[4-fluoro-3-(trifluoromethyl)phe-nyl]-7-(2,2,2-trifluoroethylidene)bi-cyclo[2.2.1]heptane-2-carboxamide]"
